Earlier results on one substance are cited in patent US8357659B2, “Method of treating pain or itching with APETx2 peptide toxin” (priority 2008, dated 2013).

This data set concerns the target T1, ASIC1a (Rattus norvegicus, UniProt P55926).
T1 sequence (P55926 1-526): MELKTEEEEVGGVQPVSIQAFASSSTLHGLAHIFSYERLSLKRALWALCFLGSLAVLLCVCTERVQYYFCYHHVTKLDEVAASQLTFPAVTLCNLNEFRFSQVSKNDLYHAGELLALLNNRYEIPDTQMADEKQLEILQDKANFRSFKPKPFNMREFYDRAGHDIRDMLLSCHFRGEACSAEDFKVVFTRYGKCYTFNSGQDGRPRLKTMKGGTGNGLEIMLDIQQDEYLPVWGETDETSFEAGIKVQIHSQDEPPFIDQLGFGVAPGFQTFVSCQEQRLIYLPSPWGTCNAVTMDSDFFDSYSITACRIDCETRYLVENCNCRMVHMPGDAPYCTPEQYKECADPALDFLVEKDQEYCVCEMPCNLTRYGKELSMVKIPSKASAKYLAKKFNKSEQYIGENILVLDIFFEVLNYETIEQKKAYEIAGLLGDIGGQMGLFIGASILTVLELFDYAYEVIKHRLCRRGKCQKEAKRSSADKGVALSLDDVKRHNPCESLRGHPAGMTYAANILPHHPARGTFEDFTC
The conditions noted are these: cited from earlier work.

As to “peptide of 42 amino acids (SEQ ID NO: 3), three disulphide bonds, from sea anemone Anthopleura elegantissima; blocks ASIC3 [APETx2]”, the “effect on ASIC1a isoform” value was “does not have any effect”.
